For experiment [1], the target named is Serine/threonine-protein kinase mTOR (Homo sapiens) (UniProt P42345). Nature of the experiment: Inhibition of mTOR phosphorylation in human SiHa cells incubated for 10 hrs by Western blot analysis. It is filed as cell-based. To be noted: dose 0.01-1 µM.
In experiment [2] the target is Protein cereblon/Heat shock protein HSP 90-alpha/Heat shock protein HSP 90-beta (Homo sapiens) (UniProt P07900+P08238+Q96SW2). Nature of the experiment: Protac activity at CRBN/Hsp90 in human SiHa cells assessed as induction of Hsp90 degradation at 1 uM incubated for 10 hrs by Western blot analysis. It is filed as cell-based.
Experiment [3] has as its system SiHa. Briefly: Induction of apoptosis in human SiHa cells assessed as late apoptotic cells at 1 uM incubated after 48 hrs by annexin V-FITC/PI staining based flow cytometry (reference value: 6.93 %). It is filed as functional. A general note: In flow cytometry, cells or beads pass a laser one at a time.
Experiment [4] deals with SiHa. Nature of the experiment: Induction of apoptosis in human SiHa cells assessed as necrotic cells at 1 uM incubated after 48 hrs by annexin V-FITC/PI staining based flow cytometry (reference value: 0.08 %). It is filed as functional.
In experiment [5] the test system is SiHa. Nature of the experiment: Induction of cell cycle arrest in human SiHa cells assessed as accumulation of cells at G1 pahse at 2.5 uM incubated after 48 hrs by PI staining based flow cytometry (reference value: 83.90 %). In kind it is functional.
Experiment [6] deals with SiHa. Briefly: Synergistic antiproliferative activity against human SiHa cells assessed as combination index at 0.05 uM incubated for 72 hrs in presence of 0.32 uM cisplatin by CCK-8 assay. It is filed as functional.
The test system of experiment [7] is SiHa. Briefly: Synergistic antiproliferative activity against human SiHa cells assessed as combination index at 0.5 uM incubated for 72 hrs in presence of 0.03 uM cisplatin by CCK-8 assay. It is filed as functional.
For experiment [8], the system named is SiHa. Nature of the experiment: Synergistic antiproliferative activity against human SiHa cells assessed as combination index at 0.75 uM incubated for 72 hrs in presence of 0.1 uM cisplatin by CCK-8 assay. It is filed as functional.
The subject of experiment [9] is SiHa. Nature of the experiment: Synergistic antiproliferative activity against human SiHa cells assessed as combination index at 1 uM incubated for 72 hrs in presence of 10 uM cisplatin by CCK-8 assay. It is filed as functional. On the technique in general: Tetrazolium dyes change colour on reduction, which living cells bring about.
The subject of experiment [10] is SiHa. Nature of the experiment: Synergistic antitumor activity against human SiHa cells xenografted in BALB/c nude mouse assessed as reduction in Ki67 protein expression at 2 mg/kg, ip co-treated with cisplatin separately for every two days by immunohistochemical analysis. It is filed as functional, organism-based. On the technique in general: Xenograft models place foreign cells or tissue in a host animal.

Calls of active or inactive are those of the source. The rule behind the calls is not given here.

Take `CC1(C)CC(=O)c2c(C(F)(F)F)nn(-c3ccc(C(N)=O)c(N[C@H]4CC[C@H](OC(=O)CNC(=O)CCCCCCCNc5cccc6c5CN(C5CCC(=O)NC5=O)C6=O)CC4)c3)c2C1` (stereo not given in full): in experiment [1], the inhibition entry was “Active”. Moreover, the outcome in [2] and in experiment [10] was Active. The Activity was 24.2% in experiment [3], 0.29% in experiment [4] and 53.29% in experiment [5]. For the same compound, the CI in experiment [6] was 0.38; in experiment [7], 0.14; in [8], 0.18; in experiment [9] it was 0.17.
